Conditions: in vivo

CC[C@H](C)[C@H](N)C(=O)N[C@@H](Cc1c[nH]c2ccccc12)C(=O)O [Ile-Trp, L-Ile-L-Trp]
side effects from the use of the dipeptide: not found any significant side effects
